Assay results: patent publication US20210227843A1, “A TEMPERING COMPOSITION FOR TEMPERING GRAIN AND CONTROLLING PATHOGENS IN AND/OR ON SAID GRAIN, AN OXIDIZING COMPOSITION FOR PREPARING SAID TEMPERING COMPOSITION, A USE OF SAID TEMPERING COMPOSITION AND A METHOD OF USE OF SAID TEMPERING COMPOSITION” (AGRI-NEO INC., priority 2017, published 2021)

Test: Flour functionality, sensory and physical characteristics after tempering wheat in an organic flour mill (Example 1)
Details: 2 L per ton of wheat (citric acid 2 Kg); 16 h hold

CC(O)C(=O)O (centres unmarked) [Lactic acid]
MIXOLAB Stability: 17.5 min

O=C(O)CC(O)(CC(=O)O)C(=O)O [Citric acid]
MIXOLAB Stability: 13.5 min
